We go through 6 compounds from ChEMBL document CHEMBL2074080, “Enhanced drug-induced apoptosis associated with P-glycoprotein overexpression is specific to antimicrotubule agents” (Pharm Res, 2003).

In this series the target is ATP-dependent translocase ABCB1 (Homo sapiens, UniProt P08183). The series can be described thus: TP_TRANSPORTER: drug resistance in MDR1-expressing MCF7 cells. The format is functional, cell-based.
ATP-dependent translocase ABCB1, sequence (P08183 whole entry): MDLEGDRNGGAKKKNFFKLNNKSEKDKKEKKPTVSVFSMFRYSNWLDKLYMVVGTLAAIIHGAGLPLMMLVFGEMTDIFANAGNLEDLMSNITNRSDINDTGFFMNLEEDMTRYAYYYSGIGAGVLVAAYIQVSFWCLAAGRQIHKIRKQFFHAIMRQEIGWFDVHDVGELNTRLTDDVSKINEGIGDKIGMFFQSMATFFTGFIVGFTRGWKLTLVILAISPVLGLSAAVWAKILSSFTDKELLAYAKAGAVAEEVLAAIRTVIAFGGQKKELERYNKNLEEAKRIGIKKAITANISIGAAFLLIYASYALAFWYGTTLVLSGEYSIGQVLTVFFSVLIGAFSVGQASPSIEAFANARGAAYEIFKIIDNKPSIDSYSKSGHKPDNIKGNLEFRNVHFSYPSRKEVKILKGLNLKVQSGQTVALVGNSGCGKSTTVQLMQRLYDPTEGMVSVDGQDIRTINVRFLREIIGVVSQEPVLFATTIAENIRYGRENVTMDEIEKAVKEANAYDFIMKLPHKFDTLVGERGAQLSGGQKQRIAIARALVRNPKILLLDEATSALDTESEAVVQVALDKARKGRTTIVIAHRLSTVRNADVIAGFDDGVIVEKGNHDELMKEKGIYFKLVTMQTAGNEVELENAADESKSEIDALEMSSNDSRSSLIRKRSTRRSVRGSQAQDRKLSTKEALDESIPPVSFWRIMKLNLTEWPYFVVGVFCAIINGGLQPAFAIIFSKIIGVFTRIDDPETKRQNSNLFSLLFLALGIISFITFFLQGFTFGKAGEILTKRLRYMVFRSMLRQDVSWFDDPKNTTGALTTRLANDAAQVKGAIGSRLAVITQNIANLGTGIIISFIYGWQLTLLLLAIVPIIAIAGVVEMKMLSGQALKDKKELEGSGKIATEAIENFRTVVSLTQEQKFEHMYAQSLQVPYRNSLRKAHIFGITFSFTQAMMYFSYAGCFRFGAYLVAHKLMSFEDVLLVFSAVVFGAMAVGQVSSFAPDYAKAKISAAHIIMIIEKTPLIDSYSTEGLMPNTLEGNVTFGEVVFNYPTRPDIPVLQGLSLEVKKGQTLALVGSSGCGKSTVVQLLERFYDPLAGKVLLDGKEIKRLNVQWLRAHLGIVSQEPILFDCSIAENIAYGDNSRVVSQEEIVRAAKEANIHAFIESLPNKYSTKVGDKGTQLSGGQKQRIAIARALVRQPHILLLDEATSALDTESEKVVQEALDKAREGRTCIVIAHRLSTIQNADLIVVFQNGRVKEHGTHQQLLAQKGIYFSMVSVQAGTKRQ
As to `O=c1[nH]c(=O)n([C@@H]2O[C@H](CO)[C@@H](O)[C@H]2O)cc1F` [5-FLUOROURIDINE], the Activity result is “is not a substrate [-]”.

On to `CC[C@@]1(O)C(=O)OCc2c1cc1n(c2=O)Cc2cc3ccccc3nc2-1` [CAMPTOTHECIN], for which the Activity result was “is not a substrate [-]”.

On to `COc1cccc2c1C(=O)c1c(O)c3c(c(O)c1C2=O)C[C@@](O)(C(=O)CO)C[C@@H]3O[C@H]1C[C@H](N)[C@H](O)[C@H](C)O1` [DOXORUBICIN], for which the Activity result was “substrate [+]”.

As to `CC(=O)O[C@H]1C(=O)[C@@]2(C)[C@H]([C@H](OC(=O)c3ccccc3)[C@]3(O)C[C@H](OC(=O)[C@H](O)[C@@H](NC(=O)c4ccccc4)c4ccccc4)C(C)=C1C3(C)C)[C@]1(OC(C)=O)CO[C@@H]1C[C@@H]2O` [PACLITAXEL], the Activity entry was “substrate [+]”.

As to `CC[C@]1(O)C[C@H]2CN(CCc3c([nH]c4ccccc34)[C@@](C(=O)OC)(c3cc4c(cc3OC)N(C=O)[C@H]3[C@@](O)(C(=O)OC)[C@H](OC(C)=O)[C@]5(CC)C=CCN6CC[C@]43[C@@H]65)C2)C1` [VINCRISTINE], the Activity entry is “substrate [+]”.

In the case of CISPLATIN, the Activity result was “is not a substrate [-]”.
